# Measured values: patent US20140163099A1, “ANTIMICROBIAL COMPOSITION” (TAKASAGO INTERNATIONAL CORPORATION, priority 2011, published 2014)
# Tested on: target microbe species
# Test: Growth inhibition activity compared with 3-menthoxypropane-1,2-diol
# Type: cell-based
# Conditions: depending on kinds of target microbe species
# Source text: Although the all present cooling agents can have growth inhibition activities against both aerobic and anaerobic microorganisms (e.g. bacteria and fungi, etc.), menthyl 3-hydroxybutanoate and 3-menthoxypropan-1-ol have specifically high growth inhibition activities and potent growth inhibition activities against both aerobic and anaerobic microorganisms. Examples of microorganisms include Corynebacterium, Actinomyces and so on. Menthyl 3-hydroxybutanoate and 3-menthoxypropan-1-ol have 2 to 8 times as much growth inhibition activity as 3-menthoxypropane-1,2-diol (which is known as an antimicrobial agent), and can have more than or equal to 8 times as much growth inhibition activity as 3-menthoxypropane-1,2-diol, depending on kinds of target microbe species.
# Furthermore, when compared 2-methyl-3-(menthoxy)propane-1,2-diol with 3-menthoxypropane-1,2-diol (which is known as an antimicrobial agent), the former has about 2 times as much growth inhibition activity as the latter, depending on kinds of target microbe species. […]
# In the present invention, the growth inhibition activity, which is an indicator of the antimicrobial activity, is evaluated by determining the Minimum Inhibitory Concentration (MIC) with an agar or liquid medium.
smiles,measurement,value
"CC1CCC(C(C)C)C(OCC(C)(O)CO)C1 (stereo not shown) [CA1, 2-methyl-3-(menthoxy)propane-1,2-diol]","growth inhibition activity as multiple of 3-menthoxypropane-1,2-diol",about 2 times
